Measured values from the supplement of paper PMC10331698.
± gives the standard deviation of the averaged measurements.

What was measured:
Assay in all cases: level (log10 ratio to DMSO vehicle control); higher = higher biomarker level / cell amount than vehicle control
[1] = compound: C=C(C)C(=O)OCCC(F)(F)C(F)(F)C(F)(F)C(F)(F)C(F)(F)C(F)(F)C(F)(F)C(F)(F)F [8:2 Fluorotelomer methacrylate] (in DMSO)
Procedure: (§1)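 BioMAP Diversity Plus panel of 12 human primary cell co-culture systems (3C, 4H, LPS, SAg, BT, BF4T, BE3C, CASM3C, HDF3CGF, KF3CT, MyoF, Mphg). Compounds were added 1 h before stimulation and left for 24 h (MyoF 48 h; BT 72 h for soluble read-outs or 6 d for IgG). Biomarkers were read by ELISA, cytotoxicity by SRB, PBMC viability and proliferation by Alamar Blue. Each well value was divided by the mean of 8 DMSO control wells on the same plate and log10 transformed; duplicate blinded samples were tested at 4 concentrations.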

[2] = compound: CN(C(=O)C(F)(F)C(F)(F)C(F)(F)F)[Si](C)(C)C [N-Methyl-N-trimethylsilylheptafluorobutyramide] (in DMSO)
Procedure: as §1

[3] = compound: O=C(O)C=C(C(F)(F)F)C(F)(F)F [3,3-Bis(trifluoromethyl)-2-propenoic acid] (in DMSO)
Procedure: as §1

[4] = compound: O=S(=O)(O)C(F)(F)C(F)(F)C(F)(F)C(F)(F)C(F)(F)C(F)(F)C(F)(F)F [Perfluoroheptanesulfonic acid] (in DMSO)
Procedure: as §1

[5] = compound: OCC(F)(F)OC(F)(F)C(F)(F)OC(F)(F)C(F)(F)OC(F)(F)CO [1H,1H,11H,11H-Perfluorotetraethylene glycol] (in DMSO)
Procedure: as §1

[6] = compound: OCCC(F)(F)C(F)(F)C(F)(F)C(F)(F)F [4:2 Fluorotelomer alcohol] (in DMSO)
Procedure: as §1

Test System	level (log10) ([1]; 6700 nM)	level (log10) ([1]; 20000 nM)	level (log10) ([2]; 6700 nM)	level (log10) ([2]; 20000 nM)	level (log10) ([2]; 60000 nM)	level (log10) ([3]; 6700 nM)	level (log10) ([3]; 20000 nM)	level (log10) ([3]; 60000 nM)	level (log10) ([4]; 1500 nM)	level (log10) ([4]; 4400 nM)	level (log10) ([4]; 13000 nM)	level (log10) ([4]; 40000 nM)	level (log10) ([5]; 6700 nM)	level (log10) ([5]; 20000 nM)	level (log10) ([5]; 60000 nM)	level (log10) ([6]; 6700 nM)	level (log10) ([6]; 20000 nM)	level (log10) ([6]; 60000 nM)
BT:PBMC Cytotoxicity	-0.0005 ± 0.0021	0.016 ± 0.058	-0.007 ± 0.0014	0.0035 ± 0.022	0.0055 ± 0.044	0.0065 ± 0.049	0.001 ± 0.02	-0.009 ± 0.025	-0.0045 ± 0.021	-0.009 ± 0.011	-0.0015 ± 0.013	0.0145 ± 0.054	0.019 ± 0.0042	-0.018 ± 0.03	-0.0425 ± 0.028	-0.044 ± 0.0042	-0.0365 ± 0.013	-0.045 ± 0.031
LPS:IL-1alpha	0.074 ± 0.0057	0.0625 ± 0.077	-0.004 ± 0.041	0.017 ± 0.0071	0.02 ± 0.0028	-0.0355 ± 0.015	-0.0495 ± 0.023	-0.095 ± 0.02	0.0125 ± 0.033	-0.0015 ± 0.026	-0.002 ± 0.069	0.056 ± 0.095	-0.02 ± 0.024	-0.017 ± 0.0057	-0.006 ± 0.042	-0.039 ± 0.055	-0.0135 ± 0.0021	-0.0205 ± 0.0078
BF4T:MMP-9	-0.002 ± 0.059	0.026 ± 0.061	-0.0305 ± 0.064	-0.012 ± 0.033	0.0095 ± 0.023	-0.0155 ± 0.0021	-0.0185 ± 0.018	-0.004 ± 0.021	0.0155 ± 0.08	-0.031 ± 0.033	-0.0335 ± 0.054	-0.003 ± 0.041	-0.007 ± 0.013	-0.004 ± 0.013	-0.0405 ± 0.033	-0.0075 ± 0.03	-0.013 ± 0.0071	-0.011 ± 0.031
LPS:CD106/VCAM-1	-0.032 ± 0.054	-0.0515 ± 0.049	-0.0165 ± 0.0021	-0.0035 ± 0.005	-0.004 ± 0.041	-0.106 ± 0.021	-0.141 ± 0.018	-0.244 ± 0.069	0.015 ± 0.023	0.009 ± 0.031	-0.0235 ± 0.052	-0.01 ± 0.035	0.001 ± 0.045	-0.002 ± 0.034	-0.041 ± 0.052	-0.017 ± 0.014	-0.0145 ± 0.005	0.0075 ± 0.00071
BE3C:HLA-DR	-0.004 ± 0.021	0.0085 ± 0.033	-0.009 ± 0.0014	-0.0105 ± 0.0021	0.009 ± 0.033	-0.0175 ± 0.0064	-0.0245 ± 0.011	-0.0355 ± 0.016	0.01 ± 0.014	-0.013 ± 0.016	-0.01 ± 0.021	-0.028 ± 0.033	-0.03 ± 0.011	-0.016 ± 0.0014	-0.163 ± 0.013	-0.0265 ± 0.052	-0.0075 ± 0.03	0.002 ± 0.0099
LPS:CD142/Tissue Factor	0.0615 ± 0.063	0.0315 ± 0.083	0.015 ± 0.065	0.0255 ± 0.1	-0.0085 ± 0.1	0.0165 ± 0.064	-0.023 ± 0.12	-0.036 ± 0.12	0.0145 ± 0.049	0.006 ± 0.0042	0.0615 ± 0.063	0.0555 ± 0.061	-0.0455 ± 0.016	-0.0665 ± 0.0064	-0.0575 ± 0.07	-0.0015 ± 0.0064	-0.025 ± 0.047	0.0235 ± 0.016
BE3C:CXCL9/MIG	-0.01 ± 0.014	-0.0095 ± 0.022	0.0065 ± 0.018	0.0005 ± 0.00071	0.004 ± 0.027	-0.007 ± 0.014	-0.007 ± 0.0057	0.005 ± 0.023	-0.011 ± 0.02	-0.009 ± 0.025	-0.006 ± 0.013	-0.006 ± 0.016	-0.005 ± 0.0042	0.004 ± 0.0071	-0.0355 ± 0.015	-0.0055 ± 0.016	0.0065 ± 0.0078	0.0025 ± 0.0021
BT:sIL-2	-0.006 ± 0.024	-0.04 ± 0.064	-0.0665 ± 0.013	-0.0325 ± 0.056	0.045 ± 0.042	-0.297 ± 0.042	-0.529 ± 0.02	-0.648 ± 0.072	-0.0445 ± 0.037	0.0215 ± 0.039	-0.0005 ± 0.013	-0.0565 ± 0.036	0.0295 ± 0.12	0.0865 ± 0.1	0.005 ± 0.13	0.0085 ± 0.064	0.0625 ± 0.11	0.0265 ± 0.071
SAg:PBMC Cytotoxicity	-0.0215 ± 0.012	0.018 ± 0.011	-0.0155 ± 0.00071	0.011 ± 0.014	0.011 ± 0.025	-0.01 ± 0.0028	-0.021 ± 0.016	0.002 ± 0.03	0.026 ± 0.016	-0.022 ± 0.033	-0.0335 ± 0.00071	0.01 ± 0.033	-0.023 ± 0.034	0.008 ± 0.016	-0.002 ± 0.033	-0.021 ± 0.023	-0.0085 ± 0.0021	-0.0095 ± 0.005
3C:CXCL9/MIG	-0.002 ± 0.0028	0.0055 ± 0.0035	-0.0045 ± 0.0035	-0.0005 ± 0.0035	0.0065 ± 0.0092	-0.015 ± 0.017	-0.004 ± 0.028	0.013 ± 0.025	0.006 ± 0.0014	-0.006 ± 0.0071	0 ± 0.0057	0.0075 ± 0.011	0.0095 ± 0.022	0.0065 ± 0.026	0.012 ± 0.0028	-0.01 ± 0.0057	-0.0025 ± 0.0078	0 ± 0.0042
4H:CCL26/Eotaxin-3	0.0035 ± 0.037	0 ± 0.02	-0.0005 ± 0.005	-0.001	-0.003 ± 0.024	-0.02 ± 0.044	-0.042 ± 0.0042	-0.121 ± 0.0064	-0.006 ± 0.025	-0.061 ± 0.035	-0.0335 ± 0.011	-0.0665 ± 0.022	-0.0255 ± 0.0064	-0.017 ± 0.044	0.0375 ± 0.028	-0.018 ± 0.016	-0.0045 ± 0.0035	-0.0015 ± 0.0035
SAg:SRB	-0.009 ± 0.0014	-0.011 ± 0.018	0.0055 ± 0.013	0.013 ± 0.0042	0.008 ± 0.0099	0.0025 ± 0.0021	-0.006 ± 0.0085	-0.0275 ± 0.005	-0.015 ± 0.0057	-0.0125 ± 0.00071	-0.0005 ± 0.012	-0.0025 ± 0.013	-0.008 ± 0.025	-0.0175 ± 0.021	-0.045 ± 0.021	-0.009 ± 0.0042	-0.013 ± 0.016	0.001 ± 0.0028
BT:B cell Proliferation	-0.025 ± 0.018	0.037 ± 0.033	0.01 ± 0.014	-0.01 ± 0.02	-0.007 ± 0.0014	-0.0145 ± 0.0021	-0.0385 ± 0.0035	-0.121 ± 0.0064	0.031 ± 0.041	0.0315 ± 0.057	-0.0185 ± 0.021	0.0115 ± 0.053	0.0215 ± 0.0021	-0.0175 ± 0.021	-0.051 ± 0.011	0.0125 ± 0.0035	0.0155 ± 0.033	0.019 ± 0.0042
LPS:sTNF-alpha	0.0165 ± 0.0064	-0.007 ± 0.017	-0.004 ± 0.0042	-0.002 ± 0.011	-0.0065 ± 0.015	-0.0305 ± 0.042	0.0195 ± 0.023	-0.0025 ± 0.035	0.024 ± 0.011	-0.0245 ± 0.012	-0.0225 ± 0.013	-0.0295 ± 0.005	0.0035 ± 0.0078	0.002 ± 0.0085	-0.082 ± 0.0099	-0.008 ± 0.02	-0.01 ± 0.0071	0.0015 ± 0.0092
3C:Proliferation	-0.0315 ± 0.005	-0.07 ± 0.034	-0.0305 ± 0.0092	0.003 ± 0.027	-0.005 ± 0.0057	-0.0425 ± 0.0021	-0.089 ± 0.02	-0.189 ± 0.1	-0.0785 ± 0.13	-0.0425 ± 0.044	0.0015 ± 0.022	-0.0275 ± 0.021	-0.04 ± 0.067	-0.116 ± 0.061	-0.248 ± 0.049	-0.011 ± 0.014	-0.0175 ± 0.032	0.013 ± 0.024
BT:sIL-17A	0.077 ± 0.13	0.041 ± 0.16	-0.0195 ± 0.073	-0.192 ± 0.11	0.071 ± 0.0042	0.0535 ± 0.043	-0.246 ± 0.1	-0.482 ± 0.0028	0.0335 ± 0.076	0.113 ± 0.035	0.026 ± 0.14	-0.078 ± 0.058	-0.075 ± 0.069	-0.105 ± 0.032	-0.337 ± 0.18	-0.007 ± 0.21	-0.043 ± 0.11	-0.037 ± 0.18
